These are literature values, as cited in patent publication US20080124416A1 (RENAISSANCE HERBS, INC., priority 2006, published 2008).

Data set [1] has as its system cultured bone cells from the femoral tissues. The following applies: micromole amounts.
Data set [2] deals with rat cortical and trabecular bone tissues.
For data set [3], the system named is diabetes (streptozotocin-induced). The settings on record: oral, 50 or 100 μg/kg/day for 14 days.
Data set [4] concerns osteoblastic MC3T3-E1 cells.
In data set [5] the test system is human lens epithelial (HLE) cells. The settings on record: in vitro.
For data set [6] the following is noted: in vitro.
The subject of the next data set is hepatic fibrosis. The following applies: 12.5 or 25 mg/kg p.o.
For data set [7] the following is noted: in vivo.

Regarding `CC1=C(/C=C/C(C)=C/C=C/C(C)=C/C=C/C=C(C)/C=C/C=C(C)/C=C/C2=C(C)C[C@@H](O)CC2(C)C)C(C)(C)CCC1` [β-cryptoxanthin], in data set [1], the “alkaline phosphatase activity and calcium content” value was “significantly increases”. Further, the “decrease in calcium content induced by prostaglandin E2 and parathyroid hormone” value in [2] is listed as “completely inhibits”. For the same molecule, the “symptoms of diabetes (serum glucose, triglycerides, calcium, body weight, bone loss)” value in data set [3] was “significantly attenuate”. Besides, in the data set with mouse marrow cultures, the “osteoblast-like cell formation induced by bone-resorbing factors” value is listed as “potently inhibits”. In addition, the “transcriptional activity, proliferation, cell differentiation and mineralization” value in data set [4] is reported as “stimulates”.

Regarding `CC1=C(/C=C/C(C)=C/C=C/C(C)=C/C=C/C=C(C)/C=C/C=C(C)/C=C/C2=C(C)C[C@@H](O)CC2(C)C)C(C)(C)C[C@H](O)C1` [zeaxanthin], the “UVB light-induced lipid peroxidation” value in data set [5] is reported as “inhibits”. The “antioxidative activity against A2-PE, a pro-oxidant protein in retinal pigment cells” value in data set [6] is given as “antioxidative activity”. In addition, in the data set on hepatic fibrosis, the “TBARS, collagen deposition, 4-hydroxyproline levels, serum ALP and AST” value is reported as “significantly decreased”; the “activities of glutathione-S-transferase and glutathione” value is reported as “significantly increased”.

Consider `CCCCCCCCCCCCCCCC(=O)O[C@@H]1CC(C)=C(/C=C/C(C)=C/C=C/C(C)=C/C=C/C=C(C)/C=C/C=C(C)/C=C/C2=C(C)CCCC2(C)C)C(C)(C)C1` [β-Cryptoxanthinpalmitate], for which, in [7], the “human bioavailability of esterified vs free form” value is “comparable”.
